Assay results from patent US7060726B2, “Antibacterial agent” (Takasago International Corporation, priority 2001, dated 2006).

What was measured:
Assay type in all cases: cell-based
[1] = system: Prevotella intermedia JCM 6322; assay: MIC, agar medium dilution method (Trypticase Soy Agar); details: (e) Prevotella intermedia, 37° C., 72 hours
Protocol: (§1) Test for Antibacterial Ability (Measurement of Minimum Inhibitory Concentration (MIC) Using an Agar Medium Dilution Method)
(§2) The samples shown below were dissolved in ethanol to prepare a serial twofold dilution stage and 100 μL of each was added to 10 mL of a sterilized agar medium (Trypticase Soy Agar (BBL)), which was then stirred sufficiently, then transferred to a 9-cm-diameter Petri dish and solidified at ambient temperature. 5 μL of a diluted test bacteria (shown below) solution was implanted in the Petri dish and cultured at 37° C. for 72 hours. After the culturing was finished, the growth state of the medium in this Petri dish was compared with that in a Petri dish (blank) containing no sample and the concentration of the sample in which the growth of bacteria was not seen was defined as MIC.

[2] = system: Porphyromonas gingivalis JCM 8525; assay: as above; details: (f) Porphyromonas gingivalis, 37° C., 72 hours
Protocol: as §1, §2

[3] = system: Streptococcus mutans JCM 5175; assay: as above; details: (a) Streptococcus mutans, 37° C., 72 hours
Protocol: as §1, §2

[4] = system: Fusobacterium nuclestum JCM 6328; assay: as above; details: (d) Fusobacterium nuclestum, 37° C., 72 hours
Protocol: as §1, §2

[5] = system: Actinomyces naeslundii JCM 8350; assay: as above; details: (b) Actinomyces naeslundii, 37° C., 72 hours
Protocol: as §1, §2

[6] = system: Actionmyces viscosus JCM 8352; assay: as above; details: (c) Actionmyces viscosus, 37° C., 72 hours
Protocol: as §1, §2

[7] = system: Staphylococcus aureus IAM12082; assay: MIC and MBC, liquid medium dilution method (NYG medium), qualification method 2; details: method 2, liquid medium
Protocol: (§3) Measurements of MIC and Minimum Bactericidal Concentration (MBC) by Using a Liquid Medium Dilution Method
(§4) The serial twofold dilution solution of the sample is prepared in the same manner as in the agar medium dilution method. 30 μL of the sample solution having each concentration is added to 3 mL of a liquid medium (NYG medium), to which is further added 60 μL of a test bacteria solution and the medium is cultured at 30° C. for 48 hours.
(§5) A change of the turbidity of the medium is measured using a wavelength of 660 nm to find MIC. The media 60 μL each are taken out from a test tube in which no growth of the bacteria is found and implanted in 3 mL of a new medium and cultured for 48 hours. The minimum concentration at which no growth of the bacteria was observed is defined MBC.

[8] = system: Staphylococcus aureus ATCC6538; assay: as above; details: method 2, liquid medium
Protocol: as §3, §4, §5

Staphylococcus aureus = assay: Conclusion from the measurement of MBC (liquid medium dilution method); details: from the results of the measurement of MBC (Table 4)
Protocol: as §3, §4, §5

[9] = system: Propionibacterium acnes JCM 6473; assay: MIC, agar medium dilution method (Trypticase Soy Agar); details: (a) Propionibacterium acnes JCM 6473, 37° C., 72 hours
Protocol: as §2, with “Test for Antibacterial Ability (Measurement of Minimum Inhibitory Concentration (MIC) Using an Agar Medium Dilution Method) The” for “The”, “samples” for “samples shown below”, “medium,” for “medium (Trypticase Soy Agar (BBL)),”, “bacteria” for “bacteria (shown below)”, “minimum inhibitory concentration (MIC). (a) Propionibacterium acnes JCM 6473 (c) Bacteriodes fragilis GAI 5560 • Trypticase Soy Agar (BBL) in these cases” for “MIC.”

[10] = system: Staphylococcus epidermides JCM 2414; assay: MIC, agar medium dilution method (Mueller Hinton medium); details: (f) Staphylococcus epidermides, 37° C., 72 hours
Protocol: as §2, with “Test for Antibacterial Ability (Measurement of Minimum Inhibitory Concentration (MIC) Using an Agar Medium Dilution Method) The” for “The”, “samples” for “samples shown below”, “medium,” for “medium (Trypticase Soy Agar (BBL)),”, “bacteria” for “bacteria (shown below)”, “minimum inhibitory concentration (MIC). (f) Staphylococcus epidermides JCM 2414 (g) Corynebacterium minutissimum IFO 15361 • Mueller Hinton medium (Difco) in these cases Sample” for “MIC.”

[11] = system: Corynebacterium xerosis JCM 1324; assay: as above; details: (d) Corynebacterium xerosis, 37° C., 72 hours
Protocol: as §2, with “Test for Antibacterial Ability (Measurement of Minimum Inhibitory Concentration (MIC) Using an Agar Medium Dilution Method) The” for “The”, “samples” for “samples shown below”, “medium,” for “medium (Trypticase Soy Agar (BBL)),”, “bacteria” for “bacteria (shown below)”, “minimum inhibitory concentration (MIC). (d) Corynebacterium xerosis JCM 1324 (g) Corynebacterium minutissimum IFO 15361 • Mueller Hinton medium (Difco) in these cases Sample” for “MIC.”

[12] = system: Bacillus subtilis PCI 219; assay: MIC, agar medium dilution method; details: 37° C., 72 hours
Protocol: as §2, with “Test for Antibacterial Ability (Measurement of Minimum Inhibitory Concentration (MIC) Using an Agar Medium Dilution Method) The” for “The”, “samples” for “samples shown below”, “medium,” for “medium (Trypticase Soy Agar (BBL)),”, “bacteria” for “bacteria (shown below)”, “minimum inhibitory concentration (MIC).” for “MIC.”

[13] = system: Corynebacterium minutissimum IFO 15361; assay: MIC, agar medium dilution method (Mueller Hinton medium); details: (g) Corynebacterium minutissimum, 37° C., 72 hours
Protocol: as §2, with “Test for Antibacterial Ability (Measurement of Minimum Inhibitory Concentration (MIC) Using an Agar Medium Dilution Method) The” for “The”, “samples” for “samples shown below”, “medium,” for “medium (Trypticase Soy Agar (BBL)),”, “bacteria” for “bacteria (shown below)”, “minimum inhibitory concentration (MIC). (g) Corynebacterium minutissimum IFO 15361 • Mueller Hinton medium (Difco) in these cases Sample” for “MIC.”

[14] = system: Propionibacterium acnes ATCC 6919; assay: MIC, agar medium dilution method (Trypticase Soy Agar); details: (b) Propionibacterium acnes ATCC 6919, 37° C., 72 hours
Protocol: as §2, with “Test for Antibacterial Ability (Measurement of Minimum Inhibitory Concentration (MIC) Using an Agar Medium Dilution Method) The” for “The”, “samples” for “samples shown below”, “medium,” for “medium (Trypticase Soy Agar (BBL)),”, “bacteria” for “bacteria (shown below)”, “minimum inhibitory concentration (MIC). (b) Propionibacterium acnes ATCC 6919 (c) Bacteriodes fragilis GAI 5560 • Trypticase Soy Agar (BBL) in these cases” for “MIC.”

[15] = system: Malassezia furfur IFO 0656; assay: MIC, agar medium dilution method (Mueller Hinton medium); details: (e) Malassezia furfur, 37° C., 72 hours
Protocol: as §2, with “Test for Antibacterial Ability (Measurement of Minimum Inhibitory Concentration (MIC) Using an Agar Medium Dilution Method) The” for “The”, “samples” for “samples shown below”, “medium,” for “medium (Trypticase Soy Agar (BBL)),”, “bacteria” for “bacteria (shown below)”, “minimum inhibitory concentration (MIC). (e) Malassezia furfur IFO 0656 (g) Corynebacterium minutissimum IFO 15361 • Mueller Hinton medium (Difco) in these cases Sample” for “MIC.”

[16] = system: Staphylococcus aureus 209P IAM 12082; assay: MIC, agar medium dilution method (Mueller Hinton medium), qualification test method 1; details: method 1, agar, 37° C., 72 hours
Protocol: as §2, with “Test for Antibacterial Ability (Measurement of Minimum Inhibitory Concentration (MIC) Using an Agar Medium Dilution Method) Measurement of Minimum Inhibitory Concentration (MIC) Using an Agar Medium Dilution Method The” for “The”, “(Mueller Hinton medium (Difco)),” for “(Trypticase Soy Agar (BBL)),”, “bacteria” for “bacteria (shown below)”, “minimum inhibitory concentration (MIC).” for “MIC.”

[17] = system: Staphylococcus aureus ATCC 6538; assay: as above; details: method 1, agar, 37° C., 72 hours
Protocol: as §2, with “Test for Antibacterial Ability (Measurement of Minimum Inhibitory Concentration (MIC) Using an Agar Medium Dilution Method) Measurement of Minimum Inhibitory Concentration (MIC) Using an Agar Medium Dilution Method The” for “The”, “(Mueller Hinton medium (Difco)),” for “(Trypticase Soy Agar (BBL)),”, “bacteria” for “bacteria (shown below)”, “minimum inhibitory concentration (MIC).” for “MIC.”

[18] = system: Bacillus subtilis PCI 219 IFO 3134; assay: as above; details: method 1, agar, 37° C., 72 hours
Protocol: as §2, with “Test for Antibacterial Ability (Measurement of Minimum Inhibitory Concentration (MIC) Using an Agar Medium Dilution Method) Measurement of Minimum Inhibitory Concentration (MIC) Using an Agar Medium Dilution Method The” for “The”, “(Mueller Hinton medium (Difco)),” for “(Trypticase Soy Agar (BBL)),”, “bacteria” for “bacteria (shown below)”, “minimum inhibitory concentration (MIC).” for “MIC.”

[19] = system: Bacteriodes fragilis GAI 5560; assay: MIC, agar medium dilution method (Trypticase Soy Agar); details: (c) Bacteriodes fragilis, 37° C., 72 hours
Protocol: as §2, with “Test for Antibacterial Ability (Measurement of Minimum Inhibitory Concentration (MIC) Using an Agar Medium Dilution Method) The” for “The”, “samples” for “samples shown below”, “medium,” for “medium (Trypticase Soy Agar (BBL)),”, “bacteria” for “bacteria (shown below)”, “minimum inhibitory concentration (MIC). (c) Bacteriodes fragilis GAI 5560 • Trypticase Soy Agar (BBL) in these cases” for “MIC.”

Q: With `Oc1cc(Cl)ccc1Oc1ccc(Cl)cc1Cl` [Sample C-1, Trichlosane] as the compound, how does the MIC [1] read?
A: 3.1 ppm

Q: What about the MIC [2] of the same compound?
A: 3.1 ppm

Q: And the MIC [3]?
A: 6.3 ppm

Q: What about the MIC [4] of the same compound?
A: 3.1 ppm

Q: What about the MIC [5] of the same compound?
A: 3.1 ppm

Q: And the MIC [6]?
A: 3.1 ppm

Q: And the MBC [7]?
A: 0.977 ppm

Q: What about the MIC ([7]; 30° C., 48 hours) of the same compound?
A: 0.244 ppm

Q: And the MBC [8]?
A: 1.95 ppm

Q: And the MIC ([8]; 30° C., 48 hours)?
A: 0.977 ppm

Q: And the “bactericidal or bacteriostatic action” value (Staphylococcus aureus)?
A: strong bactericidal activity

Q: `CCCCOC(=O)c1ccc(O)cc1` [Sample C-2, Butylparabene] was tested. Which MIC [1] did it give?
A: 100 ppm

Q: What about the MIC [2] of the same compound?
A: 50 ppm

Q: And the MIC [3]?
A: 200 ppm

Q: And the MIC [4]?
A: 100 ppm

Q: And the MIC [5]?
A: 100 ppm

Q: And the MIC [6]?
A: 100 ppm

Q: What about the “Minimum inhibitory concentration (MIC)” value [9] of the same compound?
A: 100 ppm

Q: And the “Minimum inhibitory concentration (MIC)” value [10]?
A: 200 ppm

Q: And the “Minimum inhibitory concentration (MIC)” value [11]?
A: 50 ppm

Q: What about the “Minimum inhibitory concentration (MIC)” value [12] of the same compound?
A: 200 ppm

Q: What about the “Minimum inhibitory concentration (MIC)” value [13] of the same compound?
A: 200 ppm

Q: And the “Minimum inhibitory concentration (MIC)” value [14]?
A: 100 ppm

Q: What about the “Minimum inhibitory concentration (MIC)” value [15] of the same compound?
A: 100 ppm

Q: What about the MIC [16] of the same compound?
A: 100 ppm

Q: What about the MIC [17] of the same compound?
A: 200 ppm

Q: And the MIC [18]?
A: 200 ppm

Q: And the “Minimum inhibitory concentration (MIC)” value [19]?
A: 50 ppm
